Source: patent US7015215B2, “Pyrrolo[2,1-c][1,4] benzodiazepines compounds and process thereof” (Council of Scientific and Industrial Research, priority 2003, dated 2006)

Columns and labels:
[1] = test system: HCT-15; experiment: NCI SRB cytotoxicity, Colon HCT-15; assay type: cell-based, human; conditions: HCT-15, Colon, 48 h
Protocol: (§1) Biological Activity: In vitro biological activity studies were carried out at National Cancer Institute (U.S.A.).
(§2) For each compound, dose response curves for each cell line were measured at a minimum of five concentrations at 10 fold dilutions. A protocol of 48 h continuous drug exposure was used, and a sulforhodamine B (SRB) protein assay was used to estimate cell viability or growth. The concentration causing 50% cell growth inhibition (GI50), total cell growth inhibition (TGI, 0% growth) and 50% cell death (LC50, −50% growth) compared with the control was calculated.

[2] = test system: SK-MEL-5; experiment: NCI SRB cytotoxicity, Melanoma SK-MEL-5; assay type: cell-based, human; conditions: SK-MEL-5, Melanoma, 48 h
Protocol: as §1, §2

[3] = test system: BT-549; experiment: NCI SRB cytotoxicity, Breast BT-549; assay type: cell-based, human; conditions: BT-549, Breast, 48 h
Protocol: as §1, §2

[4] = test system: SF-295; experiment: NCI SRB cytotoxicity, CNS SF-295; assay type: cell-based, human; conditions: SF-295, CNS, 48 h
Protocol: as §1, §2

[5] = test system: SR; experiment: NCI SRB cytotoxicity, Leukemia SR; assay type: cell-based, human; conditions: 48 h
Protocol: as §1, §2

[6] = test system: PC-3; experiment: NCI SRB cytotoxicity, Prostate PC-3; assay type: cell-based, human; conditions: PC-3, Prostate, 48 h
Protocol: as §2

[7] = test system: IGROVI; experiment: NCI SRB cytotoxicity, Ovarian IGROVI; assay type: cell-based, human; conditions: 48 h
[8] = test system: NCI-H226; experiment: NCI SRB cytotoxicity, Non-small-cell lung NCI-H226; assay type: cell-based, human; conditions: 48 h
Protocol: as §1, §2

[9] = test system: T-47D; experiment: NCI SRB cytotoxicity, Breast T-47D; assay type: cell-based, human; conditions: 48 h
Protocol: as §1, §2

[10] = test system: UO-31; experiment: NCI SRB cytotoxicity, Renal UO-31; assay type: cell-based, human; conditions: UO-31, Renal, 48 h
Protocol: as §2

[11] = test system: SK-MEL-28; experiment: NCI SRB cytotoxicity, Melanoma SK-MEL-28; assay type: cell-based, human; conditions: SK-MEL-28, Melanoma, 48 h
Protocol: as §1, §2

[12] = test system: SN12C; experiment: NCI SRB cytotoxicity, Renal SN12C; assay type: cell-based, human; conditions: 48 h
Protocol: as §1, §2

[13] = test system: human tumor cell lines; experiment: NCI in vitro cytotoxicity SRB assay, mean graph midpoints over the panel; assay type: cell-based; conditions: 48 h continuous exposure
Protocol: as §1, §2

[14] = test system: HS578T; experiment: NCI SRB cytotoxicity, Breast HS578T; assay type: cell-based, human; conditions: 48 h
Protocol: as §1, §2

[15] = test system: NCI-H23; experiment: NCI SRB cytotoxicity, Non-small-cell lung NCI-H23; assay type: cell-based, human; conditions: 48 h
Protocol: as §1, §2

[16] = test system: K-62; experiment: NCI SRB cytotoxicity, Leukemia K-62; assay type: cell-based, human; conditions: K-62, Leukemia, 48 h
Protocol: as §1, §2

[17] = test system: NCI-H322; experiment: NCI SRB cytotoxicity, Non-small-cell lung NCI-H322; assay type: cell-based, human; conditions: 48 h
Protocol: as §1, §2

[18] = test system: COLO 205; experiment: NCI SRB cytotoxicity, Colon COLO 205; assay type: cell-based, human; conditions: COLO 205, Colon, 48 h
Protocol: as §1, §2

[19] = test system: SK-MEL-2; experiment: NCI SRB cytotoxicity, Melanoma SK-MEL-2; assay type: cell-based, human; conditions: SK-MEL-2, Melanoma, 48 h
Protocol: as §1, §2

[20] = test system: HT-29; experiment: NCI SRB cytotoxicity, Colon HT-29; assay type: cell-based, human; conditions: HT-29, Colon, 48 h
Protocol: as §1, §2

[21] = test system: HOP-92; experiment: NCI SRB cytotoxicity, Non-small-cell lung HOP-92; assay type: cell-based, human; conditions: HOP-92, Non-small-cell lung, 48 h
Protocol: as §1, §2

[22] = test system: NCI/ADR-RES; experiment: NCI SRB cytotoxicity, Breast NCI/ADR-RES; assay type: cell-based, human; conditions: 48 h
Protocol: as §1, §2

[23] = test system: HCT-116; experiment: NCI SRB cytotoxicity, Colon HCT-116; assay type: cell-based, human; conditions: HCT-116, Colon, 48 h
Protocol: as §1, §2

[24] = test system: ACHN; experiment: NCI SRB cytotoxicity, Renal ACHN; assay type: cell-based, human; conditions: 48 h
Protocol: as §1, §2

[25] = test system: SNB-19; experiment: NCI SRB cytotoxicity, CNS SNB-19; assay type: cell-based, human; conditions: SNB-19, CNS, 48 h
Protocol: as §1, §2

[26] = test system: CAKI-1; experiment: NCI SRB cytotoxicity, Renal CAKI-1; assay type: cell-based, human; conditions: CAKI-1, Renal, 48 h
Protocol: as §1, §2

[27] = test system: RPMI-8226; experiment: NCI SRB cytotoxicity, Leukemia RPMI-8226; assay type: cell-based, human; conditions: RPMI-8226, Leukemia, 48 h
Protocol: as §2

[28] = test system: MDA-MB-231/ATCC; experiment: NCI SRB cytotoxicity, Breast MDA-MB-231/ATCC; assay type: cell-based, human; conditions: 48 h
Protocol: as §1, §2

[29] = test system: UACC-257; experiment: NCI SRB cytotoxicity, Melanoma UACC-257; assay type: cell-based, human; conditions: UACC-257, Melanoma, 48 h
Protocol: as §1, §2

[30] = test system: HOP-62; experiment: NCI SRB cytotoxicity, Non-small-cell lung HOP-62; assay type: cell-based, human; conditions: HOP-62, Non-small-cell lung, 48 h
Protocol: as §1, §2

[31] = test system: MCF7; experiment: NCI SRB cytotoxicity, Breast MCF7; assay type: cell-based, human; conditions: 48 h
Protocol: as §1, §2

[32] = test system: U251; experiment: NCI SRB cytotoxicity, CNS U251; assay type: cell-based, human; conditions: 48 h
Protocol: as §1, §2

[33] = test system: HCC-2998; experiment: NCI SRB cytotoxicity, Colon HCC-2998; assay type: cell-based, human; conditions: HCC-2998, Colon, 48 h
Protocol: as §1, §2

[34] = test system: DU-145; experiment: NCI SRB cytotoxicity, Prostate DU-145; assay type: cell-based, human; conditions: DU-145, Prostate, 48 h
Protocol: as §2

[35] = test system: UACC-62; experiment: NCI SRB cytotoxicity, Melanoma UACC-62; assay type: cell-based, human; conditions: UACC-62, Melanoma, 48 h
Protocol: as §1, §2

[36] = test system: KM-12; experiment: NCI SRB cytotoxicity, Colon KM-12; assay type: cell-based, human; conditions: KM-12, Colon, 48 h
Protocol: as §1, §2

[37] = test system: SW-620; experiment: NCI SRB cytotoxicity, Colon SW-620; assay type: cell-based, human; conditions: SW-620, Colon, 48 h
Protocol: as §1, §2

COc1cc2c(cc1OCCCCN1CCN(CCCCOc3cc4c(cc3OC)C(=O)N3CCC[C@H]3C=N4)CC1)N=C[C@@H]1CCCN1C2=O [Compound VIc, 1,1′-{[(bisbutane-1,N-diyl)piperazine]dioxy}bis[(11aS)-7-methoxy-1,2,3,11a-tetrahydro-5H-pyrrolo[2,1-c][1,4]benzodiazepin-5-one]]
Log GI 50 [1]: −7.92 mol/L | Log LC 50 [1]: −6.37 mol/L | Log GI 50 [2]: −7.86 mol/L | Log LC 50 [2]: −6.68 mol/L | Log GI 50 [3]: −7.68 mol/L | Log LC 50 [3]: −4.00 mol/L | Log LC 50 [4]: −4.69 mol/L | Log LC 50 [5]: −5.62 mol/L | Log GI 50 [6]: −7.02 mol/L | Log LC 50 [6]: −4.00 mol/L | Log GI 50 [7]: −6.79 mol/L | Log LC 50 [7]: −4.00 mol/L | Log LC 50 [8]: −4.00 mol/L | Log LC 50 [9]: −4.00 mol/L | Log GI 50 [10]: −6.65 mol/L | Log LC 50 [10]: −4.00 mol/L | Log GI 50 [11]: −7.69 mol/L | Log LC 50 [11]: −4.00 mol/L | Log LC 50 [12]: −4.00 mol/L | Log10 GI50 mean graph midpoint (MG_MID) [13]: −7.70 | Log10 LC50 mean graph midpoint (MG_MID) [13]: −4.47 | Log10 TGI mean graph midpoint (MG_MID) [13]: −5.95 | Log GI 50 [14]: −7.30 mol/L | Log LC 50 [14]: −4.00 mol/L | Log LC 50 [15]: −5.59 mol/L | Log GI 50 [16]: −7.63 mol/L | Log LC 50 [16]: −4.00 mol/L | Log GI 50 [17]: −7.59 mol/L | Log LC 50 [17]: −4.00 mol/L | Log GI 50 [18]: −7.99 mol/L | Log LC 50 [18]: −6.26 mol/L | Log GI 50 [19]: −7.34 mol/L | Log LC 50 [19]: −4.00 mol/L | Log GI 50 [20]: −7.89 mol/L | Log LC 50 [20]: −4.00 mol/L | Log LC 50 [21]: −4.00 mol/L | Log GI 50 [22]: −6.47 mol/L | Log LC 50 [22]: −4.00 mol/L | Log GI 50 [23]: −6.42 mol/L | Log LC 50 [23]: −4.00 mol/L | Log LC 50 [24]: −4.00 mol/L | Log LC 50 [25]: −4.44 mol/L | Log LC 50 [26]: −4.28 mol/L | Log GI 50 [27]: −7.81 mol/L | Log LC 50 [27]: −4.60 mol/L | Log GI 50 [28]: −7.47 mol/L | Log LC 50 [28]: −4.43 mol/L | Log GI 50 [29]: −7.65 mol/L | Log LC 50 [30]: −4.00 mol/L | Log LC 50 [31]: −4.00 mol/L | Log LC 50 [32]: −4.41 mol/L | Log GI 50 [33]: −7.95 mol/L | Log LC 50 [33]: −4.00 mol/L | Log GI 50 [34]: −7.60 mol/L | Log LC 50 [34]: −4.00 mol/L | Log LC 50 [35]: −7.35 mol/L | Log GI 50 [36]: −7.84 mol/L | Log LC 50 [36]: −4.67 mol/L

COc1cc2c(cc1OCCN1CCN(CCOc3cc4c(cc3OC)C(=O)N3CCC[C@H]3C=N4)CC1)N=C[C@@H]1CCCN1C2=O [Compound VIa, 1,1′-{[(bisethane-1,N-diyl)piperazine]dioxy}bis[(11aS)-7-methoxy-1,2,3,11a-tetrahydro-5H-pyrrolo[2,1-c][1,4]benzodiazepin-5-one]]
Log GI 50 [37]: −4.68 mol/L | Log LC 50 [37]: −4.00 mol/L | Log GI 50 [1]: −4.39 mol/L | Log LC 50 [1]: −4.00 mol/L | Log GI 50 [2]: −4.75 mol/L | Log LC 50 [2]: −4.00 mol/L | Log GI 50 [3]: −4.56 mol/L | Log LC 50 [3]: −4.00 mol/L | Log GI 50 [4]: −5.06 mol/L | Log LC 50 [4]: −4.00 mol/L | Log GI 50 [5]: −6.68 mol/L | Log LC 50 [5]: −5.21 mol/L | Log GI 50 [6]: −4.44 mol/L | Log LC 50 [6]: −4.00 mol/L | Log GI 50 [7]: −4.21 mol/L | Log LC 50 [7]: −4.00 mol/L | Log GI 50 [8]: −4.80 mol/L | Log LC 50 [8]: −4.00 mol/L | Log GI 50 [9]: −4.57 mol/L | Log LC 50 [9]: −4.00 mol/L | Log GI 50 [10]: −4.12 mol/L | Log LC 50 [10]: −4.00 mol/L | Log GI 50 [11]: −4.22 mol/L | Log LC 50 [11]: −4.00 mol/L | Log GI 50 [12]: −4.90 mol/L | Log LC 50 [12]: −4.00 mol/L | Log10 GI50 mean graph midpoint (MG_MID) [13]: −4.69 | Log10 LC50 mean graph midpoint (MG_MID) [13]: −4.03 | Log10 TGI mean graph midpoint (MG_MID) [13]: −4.16 | Log GI 50 [14]: −4.34 mol/L | Log LC 50 [14]: −4.00 mol/L | Log GI 50 [15]: −4.76 mol/L | Log LC 50 [15]: −4.00 mol/L | Log GI 50 [16]: −4.58 mol/L | Log LC 50 [16]: −4.00 mol/L | Log GI 50 [17]: −4.51 mol/L | Log LC 50 [17]: −4.00 mol/L | Log GI 50 [18]: −4.66 mol/L | Log LC 50 [18]: −4.00 mol/L | Log GI 50 [19]: −4.57 mol/L | Log LC 50 [19]: −4.00 mol/L | Log GI 50 [20]: −4.58 mol/L | Log LC 50 [20]: −4.00 mol/L | Log GI 50 [21]: −4.68 mol/L | Log LC 50 [21]: −4.00 mol/L | Log GI 50 [22]: −4.00 mol/L | Log LC 50 [22]: −4.00 mol/L | Log GI 50 [23]: −4.47 mol/L | Log LC 50 [23]: −4.00 mol/L | Log GI 50 [24]: −4.82 mol/L | Log LC 50 [24]: −4.00 mol/L | Log GI 50 [25]: −4.75 mol/L | Log LC 50 [25]: −4.00 mol/L | Log GI 50 [26]: −5.04 mol/L | Log LC 50 [26]: −4.00 mol/L | Log GI 50 [27]: −6.08 mol/L | Log LC 50 [27]: −4.33 mol/L | Log GI 50 [28]: −4.67 mol/L | Log LC 50 [28]: −4.00 mol/L | Log GI 50 [29]: −4.49 mol/L | Log LC 50 [29]: −4.00 mol/L | Log GI 50 [30]: −4.46 mol/L | Log LC 50 [30]: −4.00 mol/L | Log GI 50 [31]: −4.88 mol/L | Log LC 50 [31]: −4.00 mol/L | Log GI 50 [32]: −4.87 mol/L | Log LC 50 [32]: −4.00 mol/L | Log GI 50 [34]: −4.36 mol/L | Log LC 50 [34]: −4.00 mol/L | Log GI 50 [35]: −4.83 mol/L | Log LC 50 [35]: −4.00 mol/L | Log GI 50 [36]: −4.70 mol/L | Log LC 50 [36]: −4.04 mol/L
